Measured values published in patent publication US6346373B1, “Whole cell assay for cathepsin K activity” (Merck Frosst Canada & Co.,, priority 1999, dated 2002).
Entries after “also recorded” stand apart in the source; their conditions may differ. Each block holds one compound with its values, some of them ahead of it.

How the values were obtained:
[1] = biological target: T1, intracellular cathepsin K in hCat K cells (Homo sapiens, UniProt P43235); assay: Flow cytometry (FACS) analysis of hCat K CHO cells with [Z-Leu-Arg]2-rhodamine; assay type: cell-based; details: 5 μM Z-Leu-Arg-Rho, cystatin and SBTI present (FIG. 8C)
T1 construct: expressed in transfected cells
T1 sequence (P43235 115-329): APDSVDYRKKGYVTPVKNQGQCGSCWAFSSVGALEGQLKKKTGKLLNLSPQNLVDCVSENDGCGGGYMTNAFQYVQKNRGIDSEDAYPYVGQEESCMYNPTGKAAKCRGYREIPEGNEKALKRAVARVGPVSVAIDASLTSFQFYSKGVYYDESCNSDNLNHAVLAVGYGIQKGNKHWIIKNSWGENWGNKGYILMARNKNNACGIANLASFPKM
Description: FIGS. 8A-8C show the results of the flow cytometry analysis of mock and hCat K expressing CHO cells. Pelleted cells are resuspended in Ca^2+ and Mg^2+ free PBS containing 20 μg/ml cystatin and 100 μg/ml SBTI. After a preincubation of 15 min at […], the substrate, 5 μM Z-Leu-Arg-rhodamine is added. Flow cytometry analysis is performed after a 15 min incubation at 37° C. with the substrate.
Stable mock or hCat K cell lines are trypsinized and resuspended at a density of 1 million cells/ml in Ca^2+ and Mg^2+ free PBS, 20 μg/ml cystatin and 100 μg/ml soybean trypsin inhibitor. Cells are preincubated for 15 min at 37° C. in the presence of vehicle or an inhibitor followed by the addition of the substrate, [Z-Leu-Arg]2-rhodamine (5 μM). Flow cytometry analysis is performed using a FACSCalibur system (Becton Dickinson, CA, USA) equipped with a CellQuest software. Voltage and fluorescence compensation adjustments are performed before each experiment using CaliBRITE beads (Becton Dickinson, CA, USA) and the FACSComp software (Becton Dickinson, CA, USA). A minimum of 10,000 events is collected for each sample. Cells are gated to exclude cell debris and abnormally large or aggregated cells.

[2] = biological target: T2, purified cathepsin K (Homo sapiens, UniProt P43235); assay: Pure cathepsin K enzyme assay, hydrolysis of Z-Leu-Arg-Rhodamine in buffer A; assay type: biochemical; details: 15 min preincubation; for IC50: pure cathepsin K in buffer A, 5 μM Z-Leu-Arg-Rhodamine, read-out: IC50 Pure Cat K
T2 construct: Standards (10 ng) of human mature cathepsin K (pure Cat k mature)
T2 sequence (P43235 115-329): T1 sequence (P43235 115-329)
Description: (§1) The rate of substrate hydrolysis is determined in supernatants from extracts of mock and cathepsin K expressing cells (5 μg/ml of total cell protein in buffer A) and a suspension of pure cathepsin K enzyme (3 nM resuspended in buffer A), in the presence of different concentrations of cystatin. Suspensions are preincubated with cystatin for 15 min, then the reaction is initiated with the addition of the substrate (5 μM Z-Leu-Arg-Rhodamine). Each data point is an average of duplicates and is reported as a percentage of inhibition of the control reaction.
(§2) The enzymatic activity of purified cathepsin K (3 nM) and transfectants' supernatants (5 μg/ml of protein) is determined by following the rate of hydrolysis of different peptide substrates conjugated to either AMC or rhodamine.
Assays are performed at room temperature in 200 μl of buffer A [50 mM MES (2-(N-morpholino)ethanesulfonic acid) buffer, pH 5.5, containing 2.5 mM EDTA, 2.5 mM dithiothreitol, 10% DMSO]. Substrate hydrolysis is monitored over a period of 10 min at room temperature in a Cytofluor 4000 fluorescent plate reader (Perseptive Biosystems, MA, USA). Cathepsin K activity measurements are calculated as initial rates over the first 5 min of the reaction.
(§3) Stable mock or hCat K expressing cells are resuspended in HBSS, pH 7.4 supplemented with 15 mM Hepes, 20 μg/ml cystatin and 100 μg/ml SBTI. Pure cathepsin K enzyme is resuspended in buffer A. Enzyme suspensions are preincubated with the designated inhibitor for 15 min before initiating the reaction with 5 μM of the substrate Z-Leu-Arg-Rhodamine.

[3] = biological target: T3, intracellular cathepsin K in hCat K expressing CHO cells (Homo sapiens, UniProt P43235); assay: Whole cell assay for cathepsin K in hCat K expressing CHO cells in presence of cystatin and SBTI; assay type: cell-based; details: hCat K expressing cells in HBSS pH 7.4, 15 mM Hepes, 20 μg/ml cystatin, 100 μg/ml SBTI; 15 min preincubation, 5 μM Z-Leu-Arg-Rhodamine
T3 construct: expressed in transfected cells
T3 sequence (P43235 115-329): T1 sequence (P43235 115-329)
Description: Unless otherwise indicated, cathepsin K activity in intact cells is conducted by challenging the cells with 5 μM of the substrate [Z-Leu-Arg]2-rhodamine in the presence of cystatin and SBTI. Using sterile 96-wells culture plates (Nunc, DK, Denmark), 50,000 mock or Cat K expressing stable cell lines are dispensed into each well and incubated for 24 h. Using the Skanwasher 300 plate washer (Skatron, VA, USA) the cells are washed twice with PBS containing Ca^2+ and Mg^2+. Then, pre-incubated for 15 min at room temperature in 200 μl HBSS (Hank's buffered saline solution), pH 7.4, supplemented with 15 mM Hepes, 20 μg/ml cystatin (Calbiochem, CA, USA) and 100 μg/ml soybean trypsin inhibitor (Sigma, ON, Canada). The pre-incubated cells are then challenged with the addition of 2 μl of [Z-Leu-Arg]2-rhodamine (500 μM stock solution in DMSO to a final 5 μM concentration). Substrate hydrolysis is monitored at room temperature in a Cytofluor 4000 fluorescent plate reader (Perseptive Biosystems, MA, USA).
as §3

[4] = biological target: human mature cathepsin K (purified enzyme) (human) (UniProt P43235); assay: cell-based or functional assay
[5] = biological target: recombinant human cathepsin K expressed in CHO cells stably transfected with pcDNA3.1/hCat K (human) (UniProt P43235); assay: cell-based or functional assay
[6] = biological target: T4, recombinant cathepsin K expressed by the CHO tranfectants (hCat K extract) (Homo sapiens, UniProt P43235); assay: Enzyme assay in hCat K CHO cell extract supernatant, hydrolysis of Z-Leu-Arg-rhodamine; assay type: biochemical; details: 5 μg/ml total cell protein in buffer A, 15 min preincubation, 5 μM substrate (FIG. 4)
T4 construct: expressed in transfected cells
T4 sequence (P43235 115-329): T1 sequence (P43235 115-329)
Description: as §1
Cultured tranfectants are pelleted, resuspended in PBS and sonicated for 3×10 s using a Kontes Ultrasonic Disrupter. […] Protein concentrations are determined on all the supernatants using the Pierce Coomassie Protein Reagent (Pierce, Ill. USA) as described in the manufacturer's instruction.
as §2
Assays are performed at room temperature in 200 μl of buffer A [50 mM MES (2-(N-morpholino)ethanesulfonic acid) buffer, pH 5.5, containing 2.5 mM EDTA, 2.5 mM dithiothreitol, 10% DMSO]. […] Cathepsin K activity measurements are calculated as initial rates over the first 5 min of the reaction. […]

[7] = system: extracellular protease activity of whole hCat K cells; assay: Effect of cell-impermeable protease inhibitors on Z-Leu-Arg-Rhodamine hydrolysis by whole hCat K cells (FIG. 5); assay type: cell-based; details: cystatin 20 μg/ml, EDTA 1 mM, SBTI 100 μg/ml, pepstatin A 0.7 μg/ml; 5 μM Z-Leu-Arg-Rhodamine (FIG. 5)
Description: Cells are seeded in sterile 96-wells cell culture plates, grown for 24 h and then washed twice with PBS. Into each well, HBSS pH 7.4 containing 15 mM Hepes is added. The rate of substrate hydrolysis is determined in the presence of the designated protease inhibitors. Cells are preincubated with an inhibitor for 15 min, then the reaction initiated with the addition of the substrate, 5 μM Z-Leu-Arg-Rhodamine. […] The reported enzymatic activities constitute the initial rate of substrate hydrolysis and each data point is an average of duplicates.
To determine the effect of different inhibitors on cathepsin K activity, mock and hCat K whole cells are preincubated with 1 μl of vehicle (control) or an inhibitor for 15 min at room temperature followed by the addition of the substrate. All inhibitors are prepared as stock solutions in DMSO (dimethylsulfoxide) and assays performed with a final DMSO concentration of 1.5%.
Mock and hCat K cells are plated into 96 well tissue culture plates as described in materials and methods and the activity is determined using the Z-Leu-Arg-rhodamine substrate. […]

[8] = Cell permeability tested in CACO-2 cells; assay type: in vitro ADME; details: unpublished results
[9] = system: bone resorption; details: Delaisse et al., 1987; cited from earlier work

Effect on increase in fluorescence in hCat K cells [1]: inhibited; also recorded: repressed
Compound: CCOC(=O)[C@H]1O[C@@H]1C(=O)N[C@@H](CC(C)C)C(=O)NCCC(C)C [Inhibitor E64d]

IC50 [2]: 41 nM
IC50 [3]: 307 nM
Compound: CC(C)CCNC(=O)[C@H](CC(C)C)NC(=O)[C@H]1O[C@@H]1C(=O)O [Inhibitor E64c]

IC50 [2]: 30 nM
IC50 [3]: 576 nM
Compound: CC(C)C[C@H](NC(=O)C1OC1C(=O)O)C(=O)NCCCCNC(=N)N (stereo partly drawn) [Inhibitor E64, trans-epoxysuccinyl-L-leucylamide-(4-guanidino) butane]
Inhibition of bone resorption [9]: effective in inhibiting bone resorption

The remaining lines, values behind:

Compound: cystatin [listing 1 of 2 here]
IC50, inhibition of the rate of hydrolysis of Z-Leu-Arg-rhodamine [4]: 0.2 µg/mL
IC50, inhibition of the rate of hydrolysis of Z-Leu-Arg-rhodamine [5]: 0.09 µg/mL

Compound: cystatin [listing 2 of 2 here]
IC50 on hydrolysis of Z-Leu-Arg-rhodamine by purified cathepsin K ([2]; 3 nM pure enzyme in buffer A, 5 μM substrate (FIG. 4)): 0.2 µg/mL
IC50 on hydrolysis of Z-Leu-Arg-rhodamine by hCat K extract [6]: 0.09 µg/mL
Effect on protease activity in whole hCat K cells [7]: decrease in protease activity; also recorded: effective inhibitor of extracellular cathepsin K activity
Cell permeability [8]: does not permeate into cells
